From US7452865B2, “Antagonistic analogs of GH RH (2003)” (The Administrare's of the Tulane Educational Fund, priority 2004, dated 2008)
Marks after values point to notes of the source that are not given here. Square brackets hold non-standard residues; d marks the D form. Peptide text beside a SMILES is read from it. * marks the point of attachment. Phe(4-amidino) = N=C(N)c1ccc(C[C@H](N)C(=O)O)cc1; Phe(4-Cl) = N[C@@H](Cc1ccc(Cl)cc1)C(=O)O; hArg = N=C(N)NCCCC[C@H](N)C(=O)O; Nle = CCCC[C@H](N)C(=O)O; Abu = CC[C@H](N)C(=O)O; PhAc = O=C(Cc1ccccc1)*

Key:
[1] = test system: PC-3 human prostate cancer xenografts; assay: PC-3 xenografts in nude mice, Experiment 1: tumor growth; type: in vivo
Method: (§1) Male nude mice were implanted s.c. with 3 mm^3 pieces of PC-3 human hormone-independent prostate cancer tissue on both flanks. When tumors reached a volume of approx. 50 mm^3, the mice were divided into 5 experimental groups with 7 to 8 animals in each group and received single daily injections for 28 days as follows: 1. Control (vehicle solution); 2. JV-1-38 (10 μg/day s.c.); 3 Peptide 31 (10 μg/day s.c.); 4. Peptide 67 (10 μg/day s.c.); 5. Peptide 62 (10 μg/day s.c.). Tumor volumes were measured twice a week. The experiment was ended on day 29 by sacrificing the mice under Isoflurane anesthesia. Resulting tumors were cleaned, weighed, and snap-frozen until further analyses. Trunk blood was collected from the abdominal aorta and serum was separated for RIA measurement of IGF-I. Statistical analyses of the measurement results were done by two-tailed t-test; data are presented as the means±S.E.

IGF-II = assay: PC-3 xenografts, Experiment 1: tumor IGF-II (RIA); type: in vivo, nude mice; details: 10 μg/day s.c., 28 days
Source text: For the measurement of GH and IGF-I levels in the serum, as well as IGF-I and IGF-II concentrations in the cytosol fraction of tumors, blood samples and tumor samples were collected and processed as described (Braczkowski R, Schally A V, Plonowski A, Varga J L, Groot K, Krupa M, Armatis P, Cancer 95: 1735-1745, 2002), hereby incorporated by reference. Briefly, blood samples are centrifuged to separate the serum, tumors are homogenized and centrifuged to separate the cytosol fraction. Serum GH is then measured by the double-antibody RIA method. Before measurement by RIA, IGF-I and IGF-II are extracted from serum and cytosol fractions using an acid-ethanol cryoprecipitation method that eliminates most of the IGF binding proteins, which can interfere with the RIA. IGF-I concentration is measured by RIA using IGF-I as a standard and goat anti-IGF-I antibody (both from DSL Inc., Webster, Tex.). IGF-II concentration is measured by RIA using human recombinant IGF-II (Bachem) as a standard and anti-IGF-II monoclonal antibody (Amano International Enzyme, Troy, Va.).
as §1

[2] = test system: DMS-153 human SCLC xenografts; assay: DMS-153 human SCLC xenografts in nude mice: tumor growth; type: in vivo
Method: Male nude mice were implanted s.c. with 3 mm^3 pieces of DMS-153 human SCLC tissue. When tumors reached a volume of approx. 100 mm^3 the mice were divided into 3 experimental groups of 68 animals each and received the following treatment for 6 weeks group 1 (control), vehicle solution; group 2, Peptide 67 (10 μg/day s.c.); group 3, Peptide 31 (10 μg/day s.c.). Tumor volumes were recorded twice a week. At the end of treatment, mice were anesthetized with isoflurane, killed by decapitation, trunk blood was collected for measurement of serum IGF-I, and tumors were excised and weighed. Data are presented as means±S.E. Data were evaluated by one way ANOVA and the Student-Newman-Keuls test.

[3] = test system: H-69 human SCLC xenografts; assay: H-69 human SCLC xenografts in nude mice: tumor growth; type: in vivo; details: H-69
Method: Male nude mice were implanted s.c. with 3 mm^3 pieces of H-69 human SCLC tissue. When tumors reached a volume of approx. 80 mm^3 the mice were divided into 4 experimental groups of 7-8 animals each and received the following treatment for 4 weeks: group I (control), vehicle solution; group 2, Peptide 67 (10 μg/day s.c.); group 3, Peptide 31 (10 μg/day s.c.); group 4, Peptide 72 (10 μg/day s.c.). Tumor volumes were recorded twice a week. At the end of treatment, mice were anesthetized with isoflurane, killed by decapitation, and tumors were excised and weighed. Data are presented as means±S.E. Data were evaluated by one way ANOVA and the Student-Newman-Keuls test.

[4] = 10 μg/day s.c., 28 days, vs control
[5] = 10 μg/day s.c., 6 weeks, vs control

For `CCCC[C@H](NC(=O)[C@@H](NC(=O)[C@H](CC(=O)O)NC(=O)[C@H](CCC(N)=O)NC(=O)[C@H](CC(C)C)NC(=O)[C@H](CC(C)C)NC(=O)[C@H](CCCCN)NC(=O)[C@H](CCCNC(=N)N)NC(=O)[C@H](C)NC(=O)[C@H](CO)NC(=O)[C@H](CC(C)C)NC(=O)[C@H](CCC(N)=O)NC(=O)[C@H](CC)NC(=O)[C@H](CC(C)C)NC(=O)[C@@H](NC(=O)[C@H](CCCCN)NC(=O)[C@H](CCCNC(=N)N)NC(=O)[C@H](Cc1ccc(OC)cc1)NC(=O)[C@H](Cc1ccc(C(=N)N)cc1)NC(=O)[C@H](CC(N)=O)NC(=O)[C@@H](NC(=O)[C@H](Cc1ccc(Cl)cc1)NC(=O)[C@@H](NC(=O)[C@H](C)NC(=O)[C@H](CC(=O)O)NC(=O)[C@@H](CCCNC(=N)N)NC(=O)[C@H](Cc1ccc(O)cc1)NC(=O)Cc1ccccc1)[C@@H](C)CC)[C@@H](C)O)C(C)C)[C@@H](C)CC)C(=O)N[C@H](CCCNC(=N)N)C(=O)N[C@@H](CCCCNC(=N)N)C(N)=O` [Peptide 67, [PhAc-Tyr^1, D-Arg^2, Phe(pCl)^6, Amp^9, Tyr(Me)^10, Abu^15, Nle^27, D-Arg^28, Har^29]hGH-RH(1-29)NH2] (PhAc-Y[dR]DAI[Phe(4-Cl)]TN[Phe(4-amidino)]Y(Me)RKVL[Abu]QLSARKLLQDI[Nle][dR][hArg]-NH2), the “Tumor volume (mm^3) Final” value ([1]; 10 μg/day s.c., 28 days) was 200 ± 39.5* mm^3, the “Tumor volume doubling time” value ([1]; 10 μg/day s.c., 28 days) was 17.0 ± 3.51 days and the “Tumor weight” value ([1]; 10 μg/day s.c., 28 days) was 150 ± 22.1 mg. The “Tumor volume Final (% inhibition)” value [1, 4] was “(60%)”, the “Tumor weight (% inhibition)” value [1, 4] was “(60%)” and the “inhibitory effect on the growth of PC-3 tumors (in words)” value ([1]; 10 μg/day s.c., compared with JV-1-38) was “stronger inhibitory effect on the growth of PC-3 tumors than the reference peptide JV-1-38”. The “Tumor volume (mm^3) Initial” value ([1]; at start of treatment) was 46.8 ± 8.11 mm^3, the “Tumor IGF-II (pg/mg protein)” value (IGF-II) was 139 ± 69.2 pg/mg protein and the “Tumor IGF-II (% inhibition)” value (IGF-II; vs control) was “(37%)”. The “Tumor volume (mm^3) Final” value ([2]; 10 μg/day s.c., 6 weeks) was 2650 ± 30* mm^3, the “Tumor weight” value ([2]; 10 μg/day s.c., 6 weeks) was 1.60 ± 0.19 g and the “Tumor volume Final (% inhibition)” value [2, 5] was “(28%)”. For the same molecule, the “Tumor weight (% inhibition)” value [2, 5] was “(31%)”, the “Tumor volume (mm^3) Initial” value ([2]; at start of treatment) was 132 ± 24 mm^3 and the “Tumor volume (mm^3) Final” value ([3]; 10 μg/day s.c., 4 weeks) was 501 ± 35* mm^3. For the same molecule, the “Tumor volume Final (% inhibition)” value ([3]; 10 μg/day s.c., 4 weeks, vs control) was “(76%)” and the “Tumor volume (mm^3) Initial” value ([3]; at start of treatment) was 82 ± 10 mm^3.
